Results on 3 compounds are retold here after ChEMBL document CHEMBL2401728, “An unexpected Dimroth rearrangement leading to annelated thieno[3,2-d][1,2,3]triazolo[1,5-a]pyrimidines with potent antitumor activity” (Eur J Med Chem, 2013).

Test [1] can be described thus: Cytotoxicity against human prostate cancer cells assessed as cellular growth at 10 uM after 48 hrs by SRB assay relative to control. Type of test: functional, Cancer cell lines. (Sulforhodamine B stains cellular protein and so reports cell mass.)
Test [2] is described as follows: Cytotoxicity against human colon cancer cells assessed as cellular growth at 10 uM after 48 hrs by SRB assay relative to control. Type of test: functional, Cancer cell lines.
Test [3] can be described thus: Cytotoxicity against human melanoma cells assessed as cellular growth at 10 uM after 48 hrs by SRB assay relative to control. Type of test: functional, Melanoma cell.
The nature of test [4]: Cytotoxicity against human ovarian cancer cells assessed as cellular growth at 10 uM after 48 hrs by SRB assay relative to control. Type of test: functional, Cancer cell lines.
A short description of test [5]: Cytotoxicity against human CNS cancer cells assessed as cellular growth at 10 uM after 48 hrs by SRB assay relative to control. Type of test: functional, Cancer cell lines.
The nature of test [6]: Cytotoxicity against human breast cancer cells assessed as cellular growth at 10 uM after 48 hrs by SRB assay relative to control. Type of test: functional, Cancer cell lines.
Test [7] is described as follows: Cytotoxicity against human renal cancer cells assessed as cellular growth at 10 uM after 48 hrs by SRB assay relative to control. Type of test: functional, Cancer cell lines.
Test [8] is described as follows: Cytotoxicity against human non-small cell lung cancer cells assessed as cellular growth at 10 uM after 48 hrs by SRB assay relative to control. Type of test: functional, Cancer cell lines.
Test [9] in a line: Cytotoxicity against human leukemia cells assessed as cellular growth at 10 uM after 48 hrs by SRB assay relative to control. Type of test: functional, Leukemia cell.
Another test has as its system RPMI-8226. Description: Cytotoxicity against human RPMI8226 cells after 48 hrs by SRB assay. Type of test: functional. The note with it: RPMI-8226, 48 h, read-out: pLC50 (converted).
The subject of a further test is HCC 2998. Description: Cytotoxicity against human HCC2998 cells after 48 hrs by SRB assay. Type of test: functional. The note with it: HCC 2998, 48 h, read-out: pLC50 (the source's name) (converted).
The test system of the next test is A549. Description: Cytotoxicity against human A549 cells after 48 hrs by SRB assay. Type of test: functional. Particulars: A549, 48 h, read-out: pLC50 (converted).
For the next test, the system named is CCRF-CEM. In words: Cytotoxicity against human CCRF-CEM cells after 48 hrs by SRB assay. Type of test: functional.
The test system of another test is MCF7. In words: Cytotoxicity against human MCF7 cells after 48 hrs by SRB assay. Particulars: MCF7, 48 h. Type of test: functional.
The subject of a further test is HCT-15. Description: Cytotoxicity against human HCT15 cells after 48 hrs by SRB assay. Type of test: functional. The note with it: HCT-15, 48 h, read-out: pTGI (converted).
The next test has as its system MOLT-4. Description: Cytotoxicity against human MOLT4 cells after 48 hrs by SRB assay. Type of test: functional. The note with it: MOLT-4, 48 h, read-out: pLC50 (the source's name) (converted).
The nature of test [10]: Cytotoxicity against human EKVX cells after 48 hrs by SRB assay. Particulars: read-out: pLC50 (the source's name) (converted). Type of test: functional.
The next test concerns HT-29. In words: Cytotoxicity against human HT-29 cells after 48 hrs by SRB assay. Type of test: functional. The note with it: HT-29, 48 h, read-out: pLC50 (the source's name) (converted).
A further test relates to MDA-MB-435. Description: Cytotoxicity against human MDA-MB-435 cells after 48 hrs by SRB assay. The note with it: MDA-MB-435, 48 h, read-out: pLC50 (the source's name) (converted). Type of test: functional.
For another test, the system named is SNB-19. In words: Cytotoxicity against human SNB19 cells after 48 hrs by SRB assay. Type of test: functional. The note with it: SNB-19, 48 h, read-out: pLC50 (the source's name) (converted).
The next test has as its system K562. Description: Cytotoxicity against human K562 cells after 48 hrs by SRB assay. Type of test: functional. The note with it: K562, 48 h, read-out: pLC50 (the source's name) (converted).

Turning to `CN1CCN(CCCn2c(=O)c3sc4ncccc4c3n3nnc(-c4ccccc4)c23)CC1`, the Activity in test [1] is 39%; in test [2] it was -37%; in test [3], -78%; in test [4] it was 7%; in [5], -43%; in test [6], -23%. Moreover, the Activity in test [7] is -14%; in test [8], 14%; in [9], -22%.
With `O=C(CCCn1c(=O)c2sc3ncccc3c2n2nnc(-c3ccccc3)c12)NCCc1c[nH]cn1`, the CC50 (in the test with RPMI-8226; with HCC 2998; in the test on A549; in the test on CCRF-CEM (read-out: pLC50 (the source's name) (converted)); with MOLT-4; in [10]) was above 100 µM in each case. Besides, the CC50 in the test on HT-29, in the test with MDA-MB-435, in the test with SNB-19 and in the test on K562 was above 100 µM each time. The Activity turned out to be 46% in [1]; 49% in test [2]; 71% in test [3]; 59% in test [4]; 60% in [5]; 79% in [6]. Moreover, the Activity in test [7] was determined as 79%; in test [8], 88%; in test [9], 61%. Further, in the test with MCF7 (read-out: pLC50 (converted)), the LC50 was above 100 µM. Moreover, the TGI with MCF7 (read-out: pTGI (converted)) and in the test with HCT-15 was 100 µM throughout.
With `O=C(CCCn1c(=O)c2sc3ccccc3c2n2nnc(-c3ccccc3)c12)NCCc1c[nH]cn1`, the Activity is recorded as -41% in test [1]; -49% in [2]; -57% in test [3]; -16% in [4]; -18% in test [5]; -5% in test [6]. For the same compound, the Activity in test [7] was -34%; in test [8], -26%; in [9] it was 71%. In addition, the TGI in the test with CCRF-CEM (read-out: pTGI (converted)) was 100 µM.
